# Assay results from PubChem BioAssay AID330 (DTP/NCI, 2004).
# Several values for one entry are separate records, joined by “and”; a condition that tells them apart may be missing. Equal values may be shown once. Inconclusive results and toxic doses are left out.
# Test system: P388 leukemia ip, CD2F1 mice, survival T/C
# Assay: NCI In Vivo Anticancer Drug Screen. Data for tumor model P388 Leukemia (intraperitoneal) in CD2F1 (CDF1) mice
# Settings: endpoint: median survival time, higher = longer survival
# How it was run: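 Mice carrying the transplanted tumor received test compound or vehicle. Survival was recorded in each group, and the value is the treated-group measurement divided by that of the vehicle-treated control group.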
# [1] = dose: 100.0 mg/kg/injection, schedule: Q04DX002 (ip), vehicle: saline with Tween-80
# [2] = dose: 200.0 mg/kg/injection, schedule: Q04DX002 (ip), vehicle: saline with Tween-80
# [3] = dose: 400.0 mg/kg/injection, schedule: Q04DX002 (ip), vehicle: saline with Tween-80
# [4] = dose: 60.0 mg/kg/injection, schedule: Q01DX005 (ip), vehicle: saline with Tween-80
# [5] = dose: 120.0 mg/kg/injection, schedule: Q01DX005 (ip), vehicle: saline with Tween-80
# [6] = dose: 50.0 mg/kg/injection, schedule: Q01DX009 (ip), vehicle: saline with Tween-80
# [7] = dose: 100.0 mg/kg/injection, schedule: Q01DX009 (ip), vehicle: saline with Tween-80
# [8] = dose: 50.0 mg/kg/injection, schedule: Q01DX009 (ip), vehicle: Klucel (hydroxypropylcellulose) (HPC)
# [9] = dose: 100.0 mg/kg/injection, schedule: Q01DX009 (ip), vehicle: Klucel (hydroxypropylcellulose) (HPC)
# [10] = dose: 200.0 mg/kg/injection, schedule: Q01DX009 (ip), vehicle: Klucel (hydroxypropylcellulose) (HPC)
# [11] = dose: 12.5 mg/kg/injection, schedule: Q01DX005 (ip), vehicle: Klucel (hydroxypropylcellulose) (HPC)
# [12] = dose: 25.0 mg/kg/injection, schedule: Q01DX005 (ip), vehicle: Klucel (hydroxypropylcellulose) (HPC)
# [13] = dose: 50.0 mg/kg/injection, schedule: Q01DX005 (ip), vehicle: Klucel (hydroxypropylcellulose) (HPC)
# [14] = dose: 100.0 mg/kg/injection, schedule: Q01DX005 (ip), vehicle: Klucel (hydroxypropylcellulose) (HPC)
# [15] = dose: 200.0 mg/kg/injection, schedule: Q01DX005 (ip), vehicle: Klucel (hydroxypropylcellulose) (HPC)
smiles,measurement,setting,value
CCN=NNc1ccc(C(C)=O)cc1,T/C,"dose: 12.5 mg/kg/injection, schedule: Q01DX009 (ip), vehicle: distilled water + Tween-80",95 % of control
same,T/C,"dose: 25.0 mg/kg/injection, schedule: Q01DX009 (ip), vehicle: distilled water + Tween-80",109 % of control and 90 % of control
same,T/C,"dose: 50.0 mg/kg/injection, schedule: Q01DX009 (ip), vehicle: distilled water + Tween-80",109 % of control and 92 % of control
same,T/C,"dose: 100.0 mg/kg/injection, schedule: Q01DX009 (ip), vehicle: distilled water + Tween-80",104 % of control
CCCCCC(C)N (stereo unspecified),T/C,"dose: 12.5 mg/kg/injection, schedule: Q01DX009 (ip), vehicle: saline",95 % of control
same,T/C,"dose: 25.0 mg/kg/injection, schedule: Q01DX009 (ip), vehicle: saline",90 % of control
CCOC(=O)c1cc(-c2cc(-c3ccccn3)nnc2-c2ccccn2)c(=O)n(C)c1C,T/C,[1],102 % of control
same,T/C,[2],97 % of control
same,T/C,[3],98 % of control
COC(=O)Cn1/c(=N\N=C(/C)c2ccc(C)cc2)sc2ccccc21,T/C,"dose: 100.0 mg/kg/injection, schedule: Q01DX001 (ip), vehicle: saline with Tween-80",95 % of control
same,T/C,"dose: 200.0 mg/kg/injection, schedule: Q01DX001 (ip), vehicle: saline with Tween-80",91 % of control
CSc1nc(NC2OC(CO)C(O)C(O)C2O)c(Cl)c(=O)n1C (stereo unspecified),T/C,"dose: 15.0 mg/kg/injection, schedule: Q01DX005 (ip), vehicle: saline with Tween-80",94 % of control
same,T/C,"dose: 30.0 mg/kg/injection, schedule: Q01DX005 (ip), vehicle: saline with Tween-80",95 % of control
same,T/C,[4],91 % of control and 97 % of control
same,T/C,[5],100 % of control
Nc1ccc2c(n1)NCC/C2=N\Nc1ccc(F)cc1,T/C,[6],105 % of control
same,T/C,[7],105 % of control
CCCCNC(=S)N/N=C/c1nc2ccccc2c(=O)n1-c1ccc(Br)cc1,T/C,[1],98 % of control
same,T/C,[2],89 % of control
COc1ccc2c(c1)NC(C(C)C)=NS2(=O)=O,T/C,"dose: 60.0 mg/kg/injection, schedule: Q01DX005 (ip), vehicle: Klucel (hydroxypropylcellulose) (HPC)",99 % of control
same,T/C,"dose: 120.0 mg/kg/injection, schedule: Q01DX005 (ip), vehicle: Klucel (hydroxypropylcellulose) (HPC)",95 % of control
same,T/C,"dose: 240.0 mg/kg/injection, schedule: Q01DX005 (ip), vehicle: Klucel (hydroxypropylcellulose) (HPC)",97 % of control
COc1cccc2c1[C@H]1CO[C@H]3C4C[C@H](C(=O)O)C([C@@H](C2)N13)N4C (stereo partly specified),T/C,"dose: 0.31 mg/kg/injection, schedule: Q01DX005 (ip), vehicle: water",112 % of control
same,T/C,"dose: 0.62 mg/kg/injection, schedule: Q01DX005 (ip), vehicle: water",113 % of control and 121 % of control
same,T/C,"dose: 1.25 mg/kg/injection, schedule: Q01DX005 (ip), vehicle: water",116 % of control
same,T/C,"dose: 10.0 mg/kg/injection, schedule: Q01DX005 (ip), vehicle: water",165 % of control and 195 % of control and 247 % of control
same,T/C,"dose: 20.0 mg/kg/injection, schedule: Q01DX005 (ip), vehicle: water",247 % of control
CCCCCCOC(=O)CC1CC(C(C)=O)C1(C)C (stereo unspecified),T/C,[8],94 % of control
same,T/C,[9],106 % of control
same,T/C,[10],109 % of control
same,T/C,"dose: 400.0 mg/kg/injection, schedule: Q01DX009 (ip), vehicle: Klucel (hydroxypropylcellulose) (HPC)",117 % of control
CCCCCCCCCCCCCCNC(=O)C[N+](C)(C)Cc1ccccc1,T/C,"dose: 0.25 mg/kg/injection, schedule: Q01DX009 (ip), vehicle: saline with Tween-80",100 % of control
same,T/C,"dose: 0.5 mg/kg/injection, schedule: Q01DX009 (ip), vehicle: saline with Tween-80",100 % of control
same,T/C,"dose: 1.0 mg/kg/injection, schedule: Q01DX009 (ip), vehicle: saline with Tween-80",100 % of control
O=c1c(N=Nc2ccccc2)c(O)n(-c2ccc(Cl)cc2)c(=S)n1-c1ccc(Br)cc1,T/C,[1],102 % of control
same,T/C,[2],103 % of control
same,T/C,[3],94 % of control
CN(C)CCO/N=C1/CC[C@H]2[C@@H]3CC[C@H]4C[C@H](O)CC[C@]4(C)[C@H]3CC[C@]12C,T/C,[11],104 % of control
same,T/C,[12],95 % of control
same,T/C,[13],95 % of control
Nc1ccccc1C(=O)/C=C/c1ccccc1,T/C,[4],100 % of control
same,T/C,[5],100 % of control
same,T/C,"dose: 240.0 mg/kg/injection, schedule: Q01DX005 (ip), vehicle: saline with Tween-80",100 % of control
C=C(CN(C)C)C(=O)c1ccc(C(=O)C(=C)CN(C)C)cc1,T/C,"dose: 0.78 mg/kg/injection, schedule: Q01DX005 (ip), vehicle: saline",105 % of control
same,T/C,"dose: 1.56 mg/kg/injection, schedule: Q01DX005 (ip), vehicle: saline",107 % of control
same,T/C,"dose: 3.12 mg/kg/injection, schedule: Q01DX005 (ip), vehicle: saline",108 % of control
O=C(NC(Cc1ccccc1)C(=O)O)OCc1ccccc1 (stereo unspecified) (tested in a mixture with another compound),T/C,"dose: 6.25 mg/kg/injection, schedule: Q01DX005 (ip), vehicle: Klucel (hydroxypropylcellulose) (HPC)",109 % of control
same,T/C,[11],106 % of control
same,T/C,[12],94 % of control
COc1c(Br)c2c(c([N+](=O)[O-])c1OC)C(=O)OC2C1c2c(cc3c(c2OC)OCO3)CCN1C (stereo unspecified),T/C,[12],91 % of control
same,T/C,[13],104 % of control
same,T/C,[14],104 % of control
same,T/C,[15],103 % of control
CC12CCC3c4ccc(O)cc4CCC3C1C/C(=C\C(=O)O)C2O (stereo unspecified),T/C,"dose: 25.0 mg/kg/injection, schedule: Q04DX003 (ip), vehicle: Klucel (hydroxypropylcellulose) (HPC)",116 % of control
same,T/C,"dose: 50.0 mg/kg/injection, schedule: Q04DX003 (ip), vehicle: Klucel (hydroxypropylcellulose) (HPC)",100 % of control and 104 % of control and 110 % of control
same,T/C,"dose: 100.0 mg/kg/injection, schedule: Q04DX003 (ip), vehicle: Klucel (hydroxypropylcellulose) (HPC)",100 % of control (2×) and 111 % of control
same,T/C,"dose: 200.0 mg/kg/injection, schedule: Q04DX003 (ip), vehicle: Klucel (hydroxypropylcellulose) (HPC)",99 % of control and 100 % of control and 121 % of control
CCOC(=O)C1C(=O)[C@H](C(=O)OC)C2CCCC3CCCC1N32 (stereo partly specified),T/C,[4],86 % of control
same,T/C,[5],87 % of control
S=c1[nH]nc(Cc2cccc3ccccc23)n1-c1ccccc1,T/C,[13],97 % of control
same,T/C,[14],99 % of control
same,T/C,[15],90 % of control
COc1cc2c(cc1OC(C)=O)C=CCCC2=O,T/C,"dose: 100.0 mg/kg/injection, schedule: Q04DX003 (ip), vehicle: saline with Tween-80",105 % of control
same,T/C,"dose: 200.0 mg/kg/injection, schedule: Q04DX003 (ip), vehicle: saline with Tween-80",100 % of control
same,T/C,"dose: 400.0 mg/kg/injection, schedule: Q04DX003 (ip), vehicle: saline with Tween-80",105 % of control
Cc1cc(=O)[nH]c2[nH][nH]c(=O)c12,T/C,"dose: 25.0 mg/kg/injection, schedule: Q01DX009 (ip), vehicle: saline with Tween-80",93 % of control
same,T/C,[6],93 % of control
same,T/C,[7],105 % of control
same,T/C,"dose: 200.0 mg/kg/injection, schedule: Q01DX009 (ip), vehicle: saline with Tween-80",90 % of control
O=C1c2ccccc2C(=O)c2c1cccc2N1CCOCC1,T/C,[8],99 % of control and 100 % of control
same,T/C,[9],101 % of control
same,T/C,[10],103 % of control and 94 % of control
CC1=NCCCN(CCN(C)C)CCCN=C(C)C2CCCC1[N-]2.[Ni+2].[O-][Cl+3]([O-])([O-])O,T/C,"dose: 6.25 mg/kg/injection, schedule: Q01DX001 (ip), vehicle: saline",100 % of control
same,T/C,"dose: 12.5 mg/kg/injection, schedule: Q01DX001 (ip), vehicle: saline",100 % of control
same,T/C,"dose: 25.0 mg/kg/injection, schedule: Q01DX001 (ip), vehicle: saline",100 % of control and 102 % of control
CN(C)C1c2cc(Cl)ccc2-c2c(N)cc(Cl)cc21 (stereo unspecified),T/C,[13],103 % of control
same,T/C,[14],99 % of control
same,T/C,[15],91 % of control
CCS(=O)c1ccccc1 (stereo unspecified),T/C,"dose: 100.0 mg/kg/injection, schedule: Q04DX002 (ip), vehicle: Klucel (hydroxypropylcellulose) (HPC)",100 % of control
same,T/C,"dose: 200.0 mg/kg/injection, schedule: Q04DX002 (ip), vehicle: Klucel (hydroxypropylcellulose) (HPC)",100 % of control
same,T/C,"dose: 400.0 mg/kg/injection, schedule: Q04DX002 (ip), vehicle: Klucel (hydroxypropylcellulose) (HPC)",102 % of control
C=CC(OC(C)=O)OC(C)=O,T/C,"dose: 8.0 mg/kg/injection, schedule: Q01DX009 (ip), vehicle: saline",109 % of control
same,T/C,"dose: 12.0 mg/kg/injection, schedule: Q01DX009 (ip), vehicle: saline",118 % of control
same,T/C,"dose: 18.0 mg/kg/injection, schedule: Q01DX009 (ip), vehicle: saline",109 % of control
COc1cc(C(c2cc3c(cc2O)OCO3)N2CCOCC2)cc(OC)c1OC (stereo unspecified),T/C,[4],107 % of control
same,T/C,[5],111 % of control
